The source of these data is US20070027130A1, “Tricyclic 6-alkylidene-penem beta-lactamase inhibitors and beta-lactam antibiotic combination: a broad spectrum antibiotic” (priority 2005, published 2007).

≈ marks a conversion by molar mass, not a printed value. A value given as a limit tells only on which side of the number the result lay.

Assay [1] relates to C. freundii GC 4164 Inducible AmpC. The experiment in a line: MIC microbroth dilution. Type of assay: cell-based. To be noted: Citrobacter freundii, β-lactamase class C, MHBII, 35° C. 18 hr, read-out: Minimal Inhibitory Concentration. The method, then:
(§1) The in vitro activities of the antibiotics were determined by the microbroth dilution method as recommended by the National Committee for Clinical Laboratory Standards (NCCLS). (NCCLS. 2000. Methods for Dilution Antimicrobial Susceptibility Tests for Bacteria That Grow Aerobically; Approved Standards: M7-A5, vol. 19. National Committee for Clinical Laboratory Standards, Villanova, Pa.). Mueller-Hinton II broth (MHBII) (BBL Cockeysville, Md.), was used for the testing procedure. […]. The plates were incubated for 18-22 hours at 35 C. in ambient air.
On the technique in general: Broth dilution looks for growth in wells or tubes with falling amounts of substance.

In assay [2] the test system is E. aerogenes GC 7039 TEM-4, Amp C inducable. Put plainly: MIC microbroth dilution. Type of assay: cell-based. To be noted: Klebsiella aerogenes, β-lactamase class A (ESBL), MHBII, 35° C. 18 hr, read-out: Minimal Inhibitory Concentration. The method, then:
as §1

Assay [3] relates to E. cloacae GC 7065 TEM-26, SHV-12 Amp C inducable. The experiment in a line: MIC microbroth dilution. Type of assay: cell-based. To be noted: Enterobacter cloacae, β-lactamase class A (ESBL), MHBII, 35° C. 18 hr, read-out: Minimal Inhibitory Concentration. On the procedure: as §1
In assay [4] the test system is E. coli GC 2146 (TEM-1; SHV-7). Put plainly: MIC microbroth dilution. Type of assay: cell-based. To be noted: Escherichia coli, β-lactamase class A, A (ESBL), MHBII, 35° C. 18 hr, read-out: Minimal Inhibitory Concentration. On the procedure:
as §1

Assay [5] has as its system E. coli GC 2253 (IRT-2). The experiment in a line: MIC microbroth dilution. Conditions: Escherichia coli, 18 h, read-out: Minimal Inhibitory Concentration. Type of assay: cell-based. The method, then:
as §1

For assay [6], the system named is E. coli GC 2844 (none). The experiment in a line: MIC microbroth dilution. Type of assay: cell-based. Conditions: Escherichia coli, β-lactamase class none, MHBII, 35° C. 18 hr, read-out: Minimal Inhibitory Concentration. The method, then:
as §1

The test system of assay [7] is K. pn GC 1510 (TEM-10). The experiment in a line: MIC microbroth dilution. Type of assay: cell-based. Conditions: Klebsiella pneumoniae, β-lactamase class A (ESBL), MHBII, 35° C. 18 hr, read-out: Minimal Inhibitory Concentration. The method, then: as §1
For assay [8], the system named is K. pn GC 3104 (MIR-1 + TEM-1). The experiment in a line: MIC microbroth dilution. Type of assay: cell-based. Conditions: Klebsiella pneumoniae, β-lactamase class A, C, MHBII, 35° C. 18 hr, read-out: Minimal Inhibitory Concentration. On the procedure:
as §1

Assay [9] deals with K. pn GC 6639 (SHV-13). Put plainly: MIC microbroth dilution. Type of assay: cell-based. To be noted: Klebsiella pneumoniae, β-lactamase class A (ESBL), MHBII, 35° C. 18 hr, read-out: Minimal Inhibitory Concentration. The method, then:
as §1

In assay [10] the test system is K. pneumoniae GC 2825 Act 1 + 3 additional. The experiment in a line: MIC microbroth dilution. To be noted: Klebsiella pneumoniae, β-lactamase class A, A (ESBL), C, MHBII, 35° C. 18 hr, read-out: Minimal Inhibitory Concentration. Type of assay: cell-based. The method, then:
as §1

Assay [11] relates to K. pneumoniae GC 7636 TEM-1 KPC-2 SHV-12. Put plainly: MIC microbroth dilution. Type of assay: cell-based. To be noted: Klebsiella pneumoniae, 18 h, read-out: Minimal Inhibitory Concentration. The method, then: as §1
The test system of assay [12] is K. pneumoniae GC 7645 TEM-30 TEM-1 KPC-2 SHV-12. The experiment in a line: MIC microbroth dilution. Type of assay: cell-based. To be noted: Klebsiella pneumoniae, 18 h, read-out: Minimal Inhibitory Concentration. The method, then: as §1
Assay [13] deals with P. aeruginosa GC 3153 Inducible AmpC. The experiment in a line: MIC microbroth dilution. Type of assay: cell-based. Conditions: Pseudomonas aeruginosa, β-lactamase class C, MHBII, 35° C. 18 hr, read-out: Minimal Inhibitory Concentration. The method, then: as §1
Assay [14] concerns P. aeruginosa GC 4161 Stably derepressed AmpC. The experiment in a line: MIC microbroth dilution. Type of assay: cell-based. To be noted: Pseudomonas aeruginosa, 18 h, read-out: Minimal Inhibitory Concentration. The method, then: as §1
Assay [15] has as its system S. maltophilia GC 1712(L1). Put plainly: MIC microbroth dilution. Type of assay: cell-based. Conditions: Stenotrophomonas maltophilia, β-lactamase class B, MHBII, 35° C. 18 hr, read-out: Minimal Inhibitory Concentration. On the procedure: as §1
For assay [16], the system named is E. coli GC 6265 TEM-1 (LSU-80-8). Put plainly: In vivo antibacterial protection, infected mice. To be noted: 168 h, read-out: ED50 mg/kg/SIV. On the procedure: Female mice strain CD-1, approximately 18-22 grams, were received from Charles River Laboratories and quarantined 7 days prior to use.
Clinical isolates that were adapted to cause infection in mice were used in the experiment, including infections with strains of E. coli and E. cloacae.
Mice were challenged by injecting 0.5 ml intraperitoneally of a predetermined bacterial inoculum suspended in 5% hog gastric mucin. The bacterial inoculum was equivalent to 10-100 LD50s of the specific infecting strain and was designed to result in death of the non-treated control animals within 7 days. Antibacterial doses (dose concentration prepared by two fold serial dilutions of the antibiotic or antibiotic/compound combination) were dissolved or suspended in 0.2% aqueous agar (subcutaneous administration) or phosphate buffered saline (intravenous administration) and administered intravenously or subcutaneously in the following manner:
a) Subcutaneously: Dose volume of 0.5 ml was administered ½ hr after infection. […]
A detailed explanation of the protocol for the determination of in vivo efficacy follows: • A) The effectiveness of the lacamase inhibitor compound/cefepime combination was evaluated against a cefepime control. […]
The protective effects of the antibacterial agent(s) were measured by the survival of the infected untreated as compared to the treated animals. […]

With `CO/N=C(\C(=O)N[C@@H]1C(=O)N2C(C(=O)[O-])=C(C[N+]3(C)CCCC3)CS[C@H]12)c1csc(N)n1` [Cefepime], the MIC in assay [1] is 2 µg/mL (≈ 4.16 µM); in assay [2] it was greater than 16 µg/mL; in assay [3], 16 µg/mL (≈ 33.3 µM); in assay [4] it was greater than 16 µg/mL; in assay [5], 0.03 µg/mL (≈ 0.0624 µM); in assay [6], 0.06 µg/mL (≈ 0.125 µM). Also, the MIC is 0.5 µg/mL (≈ 1.04 µM) in assay [7]; 1 µg/mL (≈ 2.08 µM) in assay [8]; 8 µg/mL (≈ 16.6 µM) in [9]; 2 µg/mL (≈ 4.16 µM) in assay [10]; greater than 16 µg/mL in assay [11]; greater than 16 µg/mL in [12]. For the same molecule, the MIC in assay [13] was 16 µg/mL (≈ 33.3 µM); in assay [14] it was greater than 16 µg/mL; in assay [15], greater than 16 µg/mL. Besides, in assay [16], the ED50 amounted to 0.039 mg/kg.
